Assay results: US6864378B2, “Integrated continuous process for anhydro sugar alcohol manufacture” (E. I. du Pont de Nemours and Company, priority 2002, dated 2005)

Assay type: physicochemical
Excerpt: The reaction product obtained by processes such as the above, contains about 70 to 80% by weight isosorbide and 20 to 30% undesired reaction byproducts. The reaction product thus needs to be subjected to one or more separation steps, such as evaporation, distillation or chromatographic separation, to isolate the isosorbide. Chromatographic separation is disclosed in U.S. Patent Application No. 60/246038 (filed 6, Nov. 2000). Separation by vaporization or distillation is difficult because of the low vapor pressure of isosorbide. […] Evaporation or distillation at temperatures not much higher than about 140° C. is desirable to-minimize product degradation and obtain good purity isosorbide, but the recovery is poor. At higher temperatures, e.g., 170° C., more isosorbide is recovered, but it is of poorer quality.
The sorbitans, dimers, and polymer byproducts are all considerably higher boiling than isosorbide. For example, the vapor pressure of the sorbitans is only about 0.04 mm Hg at 140° C., about one-fiftieth that of isosorbide. The dimers are even less volatile, and the polymers are practically nonvolatile. Therefore, the water vapor volatilizes most of the dianhydro sugar alcohols but not such high boiling byproducts. […]

In the case of O[C@@H]1CO[C@H]2[C@@H]1OC[C@@H]2O [isosorbide, 1,4:3,6-dianhydrosorbitol], the vapor pressure is reported as 1.75 mm Hg.
